# Source: EP1223923B1, “UNSATURATED ARYL SULFONES FOR PROTECTING NORMAL CELLS FROM CYTOTOXICITY OF CHEMOTHERAPEUTIC AGENTS” (Temple University - Of The Commonwealth System of Higher …, priority 1999, dated 2001)
# Assays:
# Assay type in all cases: cell-based
# [1] = system: Normal human HFL-1 cells; test: Cytoprotection assay against paclitaxel; set-up: key: +: A compound was deemed to be active if the number of viable cells following the combination treatment was higher than the number of cells after treatment with paclitaxel alone; details: 2.0 or 10 µM sulfone; paclitaxel (250 nM) at time zero or 24 hours later; viable cells after 96 hours of paclitaxel
# Experimental: The cytoprotective activity of the same styryl benzylsulfones was determined as follows. Normal human HFL-1 cells were plated at a cell density of 1.0 x 10^5 cells per well in six culture plates. Styryl benzylsulfone was added 24 hours later at a final concentration of either 2.0 or 10 µM. The time of styryl sulfone addition was designated as time zero. Paclitaxel (250 nM) was added at either time zero, or 24 hours after time zero. The total number of viable cells was determined, as described above, after 96 hours of paclitaxel treatment. A compound was deemed to be active if the number of viable cells following the combination treatment was higher than the number of cells after treatment with paclitaxel alone. Table 7: Antitumor and Cytoprotective Effect of Styryl Sulfones
# [2] = Plating efficiency (colony-forming ability) of normal human fibroblasts; details: hfl-1 cells, 24 hour incubation with drug, replated, colonies counted after 20 days, read-out: concentration of the drug causing 50% inhibition in plating efficiency
# Experimental: HFL-1 cells (normal, human diploid lung fibroblasts) purchased from ATCC were plated after first passage at low density (2.0 x 10^5cells) per well (6 well dishes) in one ml of growth medium (DMEM completed with 10% fetal bovine serum and pen/strep). Twenty-four hours later, (E)-4-fluorostyryl-4-chlorobenzylsulfone was added to each well at the following final concentrations; 0 µM, 2.5. µM, 5.0 µM, 25 µM, 50 µM, and 75 µM. After a 24 hour incubation period, the wells were washed 3x with 5 ml normal growth medium and each well was trypsinized and cell counts were determined. To determine colony-forming ability, the cells from each treatment were then serial diluted and replated into 100mm dishes such that each group was split into 3 replating groups consisting of 10, 100, 200 cells per plate. The groups were plated in triplicate. The cells were incubated for 20 days under normal growth conditions and colonies were counted after staining with modified Wright stain (Sigma). The number of colonies from each plate in triplicate were determined and the average for each group was plotted. The concentration of the drug causing 50% inhibition in plating efficiency was calculated and found to be 70 µM.
# [3] = system: HFL-1 cells; test: Protection of normal human fibroblasts from anticancer agent cytotoxicity (protection ratio, Trypan blue exclusion); details: 2.0 µM sulfone 24 hour preincubation, viable cells 96 hours after cytotoxic agent
# Experimental: HFL-1 cells were plated at a cell density of 1.0 x 10^5 in 1 ml of medium. Twenty-four hours following plating, 2.0 µM of (E)-4-fluorostyryl-4-chlorobenzylsulfone was added to the medium. Following a 24 hour preincubation with the styryl sulfone, the various cytotoxic agents listed in Table 6 were added to the cells, at the concentrations given in Table 6. the number of viable cells was determined by Trypan blue exclusion using a hematocytometer 96 hours after exposure to cytotoxic agent. The "Protection Ratio" is the number of viable cells following treatment with (E)-4-fluorostyryl-4-chlorobenzylsulfone and cytotoxic agent, divided by the number of viable cells remaining after treatment with cytotoxic agent alone. A protection ratio of 2 or more is considered highly significant, while is protection ratio of 1.5-2 is considered less significant. […] Table 6: Protective Effect of (E)-4-Fluorostyryl-4-Chlorobenzylsulfone on HFL-1 Cells Treated with Cytotoxic Drugs
smiles,measurement,setting,value
"O=S(=O)(/C=C/c1ccc(Cl)cc1)Cc1ccc(Cl)cc1 [Example 8, (E)-4-chlorostyryl-4-chlorobenzyl sulfones]",Cytoprotection,[1],+
"O=S(=O)(/C=C/c1ccc(F)cc1)Cc1ccc(Cl)cc1 [Example 7, (E)-4-fluorostyryl-4-chlorobenzyl sulfone]",CC50 at 24 h,[2],70 µM
same,Protection Ratio,[3]; 5-fluorouracil 20 µM (DNA antimetabolite),1.3
same,Protection Ratio,[3]; camptothecin 0.5 µM (topoisomerase I inhibitor),2.1
same,Protection Ratio,[3]; cisplatin 5.0 µM (alkylating agent),1.3
same,Protection Ratio,[3]; doxorubicin 0.4 µM (topoisomerase II inhibitor),1.5
same,Protection Ratio,[3]; etoposide 3.0 µM (topoisomerase II inhibitor),3.5
same,Protection Ratio,[3]; mitoxantrone 0.3 µM (topoisomerase II inhibitor),2.0
same,Protection Ratio,[3]; paclitaxel 0.25 µM (antimitotic),2.5
same,Protection Ratio,[3]; vincristine 0.25 µM (antimitotic),3.0
same,Cytoprotection,[1],+
"O=S(=O)(/C=C/c1ccc(F)cc1)Cc1ccc(Cl)cc1Cl [Example 11, (E)-4-fluorostyryl-2,4-dichlorobenzyl sulfone]",Cytoprotection,[1],+
"O=C(C(=Cc1ccc(F)cc1)S(=O)(=O)c1ccccc1)c1ccccc1 [Example 12, 2-(phenylsulfonyl)-1-phenyl-3-(4-fluorophenyl)-2-propen-1-one]",Cytoprotection,[1],+
"O=S(=O)(/C=C/c1ccc(F)cc1Cl)Cc1ccc(Cl)cc1 [Example 9, (E)-2-chbro-4-fluorostryryl4-chlorobenzl sulfone]",Cytoprotection,[1],+
"O=C(O)c1ccc(/C=C/S(=O)(=O)Cc2ccc(Cl)cc2)cc1 [Example 10, (E)-4-carboxystyryl-chlorobenzyl sulfone]",Cytoprotection,[1],+
